Assay results published in patent US4578382A, “4-acylamino-1-azaadamantanes, and compositions for use thereof in medicine” (Etablissements Nativelle S.A., priority 1981, dated 1986).

Columns and labels:
[1] = Acute toxicity in the mouse (LD 50, Litchfield and Wilcoxon); details: in vivo, ip, intraperitoneal, read-out: LD 50 I.P.
Method: The acute toxicity of the derivatives of the invention were studied by intraperitoneal administration (I.P.) on the mouse (10 animals, 5 males and 5 females per dose) and calculation of the lethal dose 50 (LD 50) in accordance with the method of Litchfield and Wilcoxon (J. Pharmacol. 96, 99-113 (1949)).
In certain cases (derivatives of Examples 4, 6, 9), the LD 50 was also calculated after oral administration (P.O.) of the derivatives.

[2] = system: anoxic ventricular fibrillation; experiment: Lawson test (cardiac antifibrillatory power, chloroform); assay type: in vivo; details: ip; mouse, intraperitoneal, 10 minutes before chloroform
Method: The Lawson test is a test for the study of the cardiac antifibrillatory power of the derivatives. The mice (20 per group) received an intraperitoneal injection of the derivative 10 minutes before being placed in a chloroform-saturated atmosphere. Upon respiratory arrest, the thorax was opened (5 to 10 seconds) and whether or not the heart was in ventricular fibrillation was checked. The efficacy dose 50 (ED 50) of the derivative being studied is the dose which protects half the mice against anoxic ventricular fibrillation.

anesthetized dog [3] = experiment: Hemodynamic (cardiovascular) tolerance in the anesthetized dog; assay type: in vivo; details: i.v.; for Cardiac Flow, percentage of variation / Cardiac Frequency, percentage of variation / Systolic Arterial Pressure, percentage of variation / Total Peripheral Resistances, percentage of variation / dp/dt/p Left Ventricular, percentage of variation: vs control period
Method: The hemodynamic tolerance of the derivatives of the invention was studied on dogs anesthesized with sodium pentobarbital. Endocavitary pressures were measured by means of catheters connected to Statham sensors while external recording of the electrocardiogram (E.C.G.) provided the measurement of cardiac frequency. Cardiac flow was measured by means of an electromagnetic sensor placed on the beginning of the aorta. The total peripheral resistances R were calculated from the value of the average aortic pressure (P) and the cardiac flow (Q) in accordance with the formula R=P/Q.
After measurement of the parameters during a control period, the derivatives were injected intravenously in cumulative doses (30 minute interval between doses). The variations of the parameters in relation to the control period were measured within 20 and 30 minutes after each injection and are expressed as a percentage of variation in relation to the control.
Table 2 summarizes the variations in hemodynamic parameters observed between the first and last injections.

[4] = system: ventricular arrhythmias with adrenalin; experiment: Test with adrenalin after experimental infarct; assay type: in vivo, dog
Text: (§1) Narcisse et al, Ann. Pharma. Fr., 37, 325-330 (1979), in the rat by the aconitine intoxication test of S. Witchitz et al, Coeur Med. Int., X(2), 281-286, (1971) and in the dog by the Harris test described in Circulation, 1, 1318, (1950) and by the test with adrenalin after experimental infarct of I. J. Steffe et al, J. Pharmacol. Exp. Ther., 214, 50-57 (1980).
2 to 5 days after an experimental infarct, the effects of discontinuous injections (in intravenous bolus of […] of basic adrenalin) of adrenalin were observed on the electrocardioagram of the conscious dog.
During a first phase (control) of the experiment, three successive injections of adrenalin were given and, in the 2 minutes following each injection, the frequency of the ventricular extrasystoles was measured. In this manner, by increasing the dose of adrenalin as necessary, it was possible to determine the dose which caused the appearance of ventricular extrasystoles at a higher frequency than or equal to half the total number of ventricular systoles.
After injection of the derivative to be tested, the same dose of adrenalin was reinjected after 5 minutes, then 30 minutes, 60 minutes, 90 minutes, etc., and its effects were compared to those observed during the control period.
The results therein are expressed as a percentage of extrasystoles (on the total number of systoles) measured during the 2 minutes following the injection of adrenalin before and after the administration of the derivative to be tested.

[5] = system: ventricular arrhythmias and death induced by the aconitine; experiment: Aconitine intoxication test in the anesthetized rat; assay type: in vivo; details: i.v., vs untreated control
Text: as §1
The anesthetized rat was intoxicated with an intravenous perfusion of aconitine while its electrocardiogram (ECG) was permanently recorded. During the perfusion at constant rate, the time necessary for the appearance of ventricular arrhythmias, successive extrasystoles (ESV), then stable ventricular tachycardium (TV) and the time within which the animal died were measured.
The animals were divided into a control group (untreated) and treated groups (different doses). The results are expressed as a percentage of prolonging the time of appearance of the arrhythmias and of death of the treated groups in reaction to the control group.
The results obtained are shown in Table 4 below and express the percentage of prolongation of the time of appearance of ventricular arrhythmias (ventricular extrasystoles and ventricular tachycardiums), and of the death, induced by the aconitine after an intravenous injection (I.V.) of several derivatives of the invention, in relation to a group of untreated control animals.

[6] = Lawson test (cardiac antifibrillatory power, chloroform); details: in vivo, ip; mouse, intraperitoneal; read-out: Maximum Dose Tolerated
anesthetized dog [7] = experiment: Electrophysiological studies on the anesthetized dog; assay type: in vivo; details: i.v., doses 0.5 to 5 mg/kg; 3 evaluations
Method: This study was carried out on dogs anesthetized with pentobarbital, with a closed thorax, by means of bipolar catheter-electrodes introduced into the cardiac cavities by transcutaneous venous and arterial means. The surface electrocardiogram (standard derivation D2) is recorded permanently.
By means of a programmable JANSEN (R) stimulator, the following parameters may be measured:
spontaneous cardiac frequency (FC);
sinus recuperation time (SRTc) after auricular stimulation imposed at 160 b/mn for 1 mn;
intracardiac conduction times (auriculohisien at a constant frequency, His-Purkinje, intraventricular);
the effective and functional refractory periods measured at an imposed constant frequency, with the extrastimulus method.
During the electrophysiological study, the derivatives were injected intravenously for 2 minutes for each dose and at 30 minute intervals between each dose. The doses are expressed as a cumulative value and as a base term.
The measurement of the various parameters was carried out before the injection of the first dose (control period) and from 10 to 28 minutes after the injection of each dose of the substance. The results are expressed as a percentage of variation in relation to the control period.

[8] = cumulative doses 0.3 to 10 mg/kg
[9] = 4 mg/kg, control period 71% of ESV
[10] = cumulative doses 0.1 to 3 mg/kg
[11] = 4.3 mg/kg, control period 94% of ESV

COc1ccc(C(=O)NC2(C)C3CC4CC2CN(C3)C4(C)C)cc1 (centres unmarked) [Example 8, N-(p-methoxybenzoyl)-4-amino 4,8,8-trimethyl-1-azaadamantane]
LD50 [1]: 250 mg/kg | ED50 [2]: 49 mg/kg | Cardiac frequency, maximum variation (anesthetized dog [3]; anesthetized dog): -15% | Cardiac Flow, percentage of variation (anesthetized dog [3]; [8]): -7 to -22% | Cardiac Frequency, percentage of variation (anesthetized dog [3]; [8]): -7 to -15% | Systolic Arterial Pressure, percentage of variation (anesthetized dog [3]; [8]): -6 to -21% | Total Peripheral Resistances, percentage of variation (anesthetized dog [3]; [8]): 0% | dp/dt/p Left Ventricular, percentage of variation (anesthetized dog [3]; [8]): 0 to -28% | ESV Percentage at 5 min [4, 9]: 35% | ESV Percentage at 30 min [4, 9]: 36% | ESV Percentage at 60 min [4, 9]: 53% | Prolongation of time of appearance of ventricular extrasystoles (ESV) ([5]; 5 mg/kg): +45% | Prolongation of time of appearance of ventricular tachycardium (TV) ([5]; 5 mg/kg): +43% | Prolongation of time to death ([5]; 5 mg/kg): +46% | Prolongation of time of appearance of ventricular extrasystoles (ESV) ([5]; 10 mg/kg): +71% | Prolongation of time of appearance of ventricular tachycardium (TV) ([5]; 10 mg/kg): +84% | Prolongation of time to death ([5]; 10 mg/kg): +215% | Prolongation of time of appearance of ventricular extrasystoles (ESV) ([5]; 20 mg/kg): +98% | Prolongation of time of appearance of ventricular tachycardium (TV) ([5]; 20 mg/kg): +107% | Prolongation of time to death ([5]; 20 mg/kg): +112% | MTD [6]: 100 mg/kg

CC1(NC(=O)c2ccc(N)cc2)C2CC3CC1CN(C2)C3(C)C (centres unmarked) [Example 3, N-(p-aminobenzoyl)-4-amino-4,8,8-trimethyl-1-azaadamantane]
LD50 [1]: 95 mg/kg | ED50 [2]: 37 mg/kg | Cardiac Flow, percentage of variation (anesthetized dog [3]; [10]): +7 to -32% | Cardiac Frequency, percentage of variation (anesthetized dog [3]; [10]): 0 to -14% | Systolic Arterial Pressure, percentage of variation (anesthetized dog [3]; [10]): -3 to -33% | Total Peripheral Resistances, percentage of variation (anesthetized dog [3]; [10]): -10 to +7% | dp/dt/p Left Ventricular, percentage of variation (anesthetized dog [3]; [10]): +14 to -50% | ESV Percentage at 5 min [4, 11]: 63% | ESV Percentage at 30 min [4, 11]: 77% | ESV Percentage at 60 min [4, 11]: 90% | F.C. (cardiac frequency), variation (anesthetized dog [7]): 0 to -24% | HV (time of His-Purkinje conduction), variation (anesthetized dog [7]): +13 to +98% | PREA (effective auricular refractory period), variation (anesthetized dog [7]): +2 to +50% | PREV (effective ventricular refractory period), variation (anesthetized dog [7]): 0 to +20% | QRS (time of intraventricular conduction), variation (anesthetized dog [7]): +8 to +39% | St-H (time of auriculohisien conduction), variation (anesthetized dog [7]): +2 to +76% | MTD [6]: 50 mg/kg
